Here are results for three molecules from patent EP0547705A1, “Pharmacologically active tricyclic benzotriazepine derivatives” (CONSEJO SUPERIOR DE INVESTIGACIONES CIENTIFICAS, priority 1991, dated 1993).

The structures appear in SMILES notation.

A short description of data set [1]: Antagonism of the effects of tetrabenazine (ptosis, akinesia, hypothermia), antidepressant activity. The class given is in vivo. The following applies: for prevents ptosis: 25 mg/kg p.o., tetrabenazine-induced ptosis; for antagonism to hypothermia produced by tetrabenazine: dose not restated (25 mg/kg p.o. given for ptosis in same sentence). The protocol: The antidepressant activity of these compounds is measured in terms of their capacity of antagonizing the effects of tetrabenazine (ptosis, akinesia and hypothermia), this action being characteristic of antidepressants such as amitriptiline or thianeptine (New Drugs: Discovery and Development. A.A. Rubin (Ed.), Marcel Dekker, Inc. New York-Basel, 203 (1978.)) For example, 2-[(5,10-dihydro-4,4-dioxo-5-methylthieno[3,4-c][2,1]benzothiazepin-10-yl)oxy]-N-methylethylamine (example 53) and 2-[(4,9-dihydro-2,9-dimethyl-10,10-dioxo-2H-pyrazolo[3,4-c][2,1]-benzothiazepin-4-yl)oxy]-1-ethylpyrrolidine (example 91) prevents ptosis at 25 mg/kg p.o., 100% and 90%, respectively, while the antagonism to hypothermia produced by tetrabenazine when administered is 85 % and 75 %, respectively.

Data set [2] in a line: Siegmund test (inhibition of pain). The format is in vivo. The following applies: 100 mg/kg p.o. As for the experimental part:
(§1) The compounds of formula I are antidepressant, diuretic, antihypertensive, antihistamic, anticonvulsive, antipyretic, anti-inflammatory and/or analgesic agents. […] Exp. Biol. Med. 95, 729 (1957.)] In connection with its activity, this compound is very safe with a LD₅₀ of 1250 mg/kg p.o. in mice.

A short description of data set [3]: Acute toxicity LD50 p.o. in mice. To be noted: mouse, in vivo, po, read-out: LD₅₀. As for the experimental part:
as §1

As for `CNCCOC1c2ccccc2N(C)S(=O)(=O)c2cscc21` (stereo not drawn) [example 53, 2-[(5,10-dihydro-4,4-dioxo-5-methylthieno[3,4-c][2,1]benzothiazepin-10-yl)oxy]-N-methylethylamine], in data set [1], the prevents ptosis came out at 100% and the “antagonism to hypothermia produced by tetrabenazine” value is 85%.
As to `CN1c2ccccc2C(O)c2sccc2S1(=O)=O` (stereo not drawn) [example 1, 5,10-dihydro-4,4-dioxo-10-hydroxy-5-methylthieno[3,2-c][2,1]benzothiazepine], in data set [2], the inhibition of pain was 92%. In addition, the LD50 in data set [3] was determined as 1250 mg/kg.
In the case of `CN1c2ccccc2C(OCCN2CCCC2)c2cn(C)nc2S1(=O)=O` (stereo not drawn) [example 91], in data set [1], the prevents ptosis turned out to be 90% and the “antagonism to hypothermia produced by tetrabenazine” value amounted to 75%.
